From PubChem BioAssay AID248 (DTP/NCI, 2004)
“And” between values parts separate entries of the source, which are not always exact repeats. Identical values can stand only once. Inconclusive results and toxic doses are left out.

Test system: L1210 leukemia ip in BDF1 mice, survival T/C
Assay: NCI In Vivo Anticancer Drug Screen. Data for tumor model L1210 Leukemia (intraperitoneal) in B6D2F1 (BDF1) mice
Details: endpoint: mean survival time, higher = longer survival
Method in brief: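 Mice bearing the transplanted tumor received compound or vehicle. Survival of the treated group was divided by that of the vehicle-treated control group to give the ratio.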

[1] = dose: 10.0 mg/kg/injection, schedule: Q01DX001 (ip), vehicle: saline
[2] = dose: 10.0 mg/kg/injection, schedule: Q04DX003 (ip), vehicle: saline
[3] = dose: 20.0 mg/kg/injection, schedule: Q01DX001 (ip), vehicle: saline
[4] = dose: 40.0 mg/kg/injection, schedule: Q01DX001 (ip), vehicle: saline
[5] = dose: 150.0 mg/kg/injection, schedule: Q01DX001 (ip), vehicle: saline
[6] = dose: 50.0 mg/kg/injection, schedule: Q01DX001 (ip), vehicle: saline
[7] = dose: 100.0 mg/kg/injection, schedule: Q01DX001 (ip), vehicle: saline
[8] = dose: 200.0 mg/kg/injection, schedule: Q01DX001 (ip), vehicle: saline
[9] = dose: 400.0 mg/kg/injection, schedule: Q01DX001 (ip), vehicle: saline
[10] = dose: 100.0 mg/kg/injection, schedule: Q01DX009 (ip), vehicle: saline with Tween-80
[11] = dose: 100.0 mg/kg/injection, schedule: Q04DX003 (ip), vehicle: saline with Tween-80
[12] = dose: 200.0 mg/kg/injection, schedule: Q01DX009 (ip), vehicle: saline with Tween-80
[13] = dose: 200.0 mg/kg/injection, schedule: Q04DX003 (ip), vehicle: saline with Tween-80
[14] = dose: 400.0 mg/kg/injection, schedule: Q04DX003 (ip), vehicle: saline with Tween-80
[15] = dose: 50.0 mg/kg/injection, schedule: Q01DX009 (ip), vehicle: Klucel (hydroxypropylcellulose) (HPC)
[16] = dose: 100.0 mg/kg/injection, schedule: Q01DX009 (ip), vehicle: Klucel (hydroxypropylcellulose) (HPC)
[17] = dose: 200.0 mg/kg/injection, schedule: Q01DX009 (ip), vehicle: Klucel (hydroxypropylcellulose) (HPC)
[18] = dose: 50.0 mg/kg/injection, schedule: Q01DX001 (ip), vehicle: carboxymethylcellulose (CMC)
[19] = dose: 100.0 mg/kg/injection, schedule: Q01DX001 (ip), vehicle: carboxymethylcellulose (CMC)
[20] = dose: 200.0 mg/kg/injection, schedule: Q01DX001 (ip), vehicle: carboxymethylcellulose (CMC)
[21] = dose: 400.0 mg/kg/injection, schedule: Q01DX001 (ip), vehicle: carboxymethylcellulose (CMC)

For `O=S(=O)(Nc1cc(Cl)c(NS(=O)(=O)c2ccccc2)c2ccccc12)c1ccccc1`, the T/C (dose: 75.0 mg/kg/injection, schedule: Q01DX001 (ip), vehicle: Klucel (hydroxypropylcellulose) (HPC)) was 92 % of control, the T/C (dose: 75.0 mg/kg/injection, schedule: Q01DX009 (ip), vehicle: Klucel (hydroxypropylcellulose) (HPC)) was 92 % of control and the T/C (dose: 150.0 mg/kg/injection, schedule: Q01DX001 (ip), vehicle: Klucel (hydroxypropylcellulose) (HPC)) was 101 % of control. The T/C (dose: 150.0 mg/kg/injection, schedule: Q01DX009 (ip), vehicle: Klucel (hydroxypropylcellulose) (HPC)) was 94 % of control and the T/C (dose: 300.0 mg/kg/injection, schedule: Q01DX001 (ip), vehicle: Klucel (hydroxypropylcellulose) (HPC)) was 95 % of control.

`CCCCCCCCCCCCCC[n+]1cccc(C#N)c1` was tested, and the T/C [1] was 100 % of control, the T/C [2] was 93 % of control and the T/C [3] was 100 % of control. The T/C (dose: 20.0 mg/kg/injection, schedule: Q04DX003 (ip), vehicle: saline) was 93 % of control, the T/C [4] was 97 % of control and the T/C (dose: 40.0 mg/kg/injection, schedule: Q04DX003 (ip), vehicle: saline) was 86 % of control.

With `CC1(Br)C(=O)C(O)=C(Br)C1=O` (stereo unspecified) the T/C (dose: 75.0 mg/kg/injection, schedule: Q01DX001 (ip), vehicle: saline) was 104 % of control and the T/C [5] was 106 % of control.

`CCCN1CC(C(=O)OCC)C(=O)C1=O` (stereo unspecified) was tested, and the T/C [6] was 108 % of control, the T/C [7] was 100 % of control and the T/C [8] was 96 % of control. For the same compound, the T/C [9] was 102 % of control.

In the case of `CC(=O)OCc1cc2ccccc2nc1C`, the T/C [10] is reported as 110 % of control, the T/C [11] is reported as 102 % of control and the T/C [12] is reported as 104 % of control. The T/C [13] was 96 % of control, the T/C (dose: 400.0 mg/kg/injection, schedule: Q01DX009 (ip), vehicle: saline with Tween-80) was 98 % of control and the T/C [14] was 96 % of control.

For `CCCCNS(=O)(=O)CCCC`, the T/C [11] was 105 % of control, the T/C [13] was 101 % of control and the T/C [14] was 97 % of control.

In the case of `CCCC(Cl)C(=O)Nc1cccc(OC(=O)NC)c1` (stereo unspecified), the T/C [11] is reported as 95 % of control, the T/C [13] is reported as 93 % of control and the T/C [14] is reported as 102 % of control.

With `CSc1ccc(NC(=O)Nc2cc(C)c(C)cc2C)cc1` the T/C (dose: 100.0 mg/kg/injection, schedule: Q01DX009 (ip), vehicle: other) was 86 % of control, the T/C (dose: 200.0 mg/kg/injection, schedule: Q01DX009 (ip), vehicle: other) was 93 % of control and 90 % of control and the T/C (dose: 400.0 mg/kg/injection, schedule: Q01DX009 (ip), vehicle: other) was 93 % of control and 106 % of control.

`CC(=O)Oc1ccc([N+](=O)[O-])cc1C(OC(C)=O)OC(C)=O` was tested, and the T/C (dose: 55.0 mg/kg/injection, schedule: Q01DX Z (ip), vehicle: methylcellulose (MC)) was 90 % of control, the T/C (dose: 83.0 mg/kg/injection, schedule: Q01DX Z (ip), vehicle: methylcellulose (MC)) was 96 % of control and the T/C (dose: 125.0 mg/kg/injection, schedule: Q01DX Z (ip), vehicle: methylcellulose (MC)) was 93 % of control.

For `CC(=O)O/N=C1\C(C)=[N+]([O-])[N+]([O-])=C1c1ccccc1`, the T/C [15] was 98 % of control, the T/C [16] was 87 % of control and the T/C [17] was 90 % of control.

`CC(C)NCCNc1ccnc2cc(Cl)ccc12` was tested, and the T/C [1] was 94 % of control, the T/C [3] was 98 % of control and the T/C [4] was 96 % of control.

For `CSc1ccc(N=Cc2ccc3c(c2)OCO3)cc1`, the T/C [15] was 103 % of control, the T/C [16] was 97 % of control and the T/C (dose: 100.0 mg/kg/injection, schedule: Q04DX003 (ip), vehicle: Klucel (hydroxypropylcellulose) (HPC)) was 102 % of control. The T/C [17] was 99 % of control, the T/C (dose: 200.0 mg/kg/injection, schedule: Q04DX003 (ip), vehicle: Klucel (hydroxypropylcellulose) (HPC)) was 107 % of control and the T/C (dose: 400.0 mg/kg/injection, schedule: Q04DX003 (ip), vehicle: Klucel (hydroxypropylcellulose) (HPC)) was 94 % of control.

`COc1ccc(Cl)cc1CCCO` was tested, and the T/C [6] was 100 % of control, the T/C [7] was 100 % of control and the T/C [8] was 92 % of control. The T/C [9] was 119 % of control.

For `CCCCCC(C[N+](C)(C)C)C(O)/C=C\c1ccccc1` (stereo unspecified), the T/C (dose: 2.5 mg/kg/injection, schedule: Q01DX009 (ip), vehicle: saline) was 97 % of control, the T/C (dose: 5.0 mg/kg/injection, schedule: Q01DX009 (ip), vehicle: saline) was 97 % of control and the T/C (dose: 5.0 mg/kg/injection, schedule: Q04DX003 (ip), vehicle: saline) was 103 % of control. For the same compound, the T/C (dose: 10.0 mg/kg/injection, schedule: Q01DX009 (ip), vehicle: saline) was 99 % of control and the T/C [2] was 98 % of control.

`OCC(O)C(O)C(OC1OC(CO)C(O)C(O)C1O)C(O)CO` (stereo unspecified) was tested, and the T/C (dose: 100.0 mg/kg/injection, schedule: Q01DX001 (ip), vehicle: Klucel (hydroxypropylcellulose) (HPC)) was 99 % of control, the T/C (dose: 200.0 mg/kg/injection, schedule: Q01DX001 (ip), vehicle: Klucel (hydroxypropylcellulose) (HPC)) was 89 % of control and the T/C (dose: 400.0 mg/kg/injection, schedule: Q01DX001 (ip), vehicle: Klucel (hydroxypropylcellulose) (HPC)) was 99 % of control.

With `ONC12CCCCC1(Cl)CCCC2` (stereo unspecified) the T/C [5] was 94 % of control.

`COc1c(Br)c(Br)c(Br)c(OC)c1OC` was tested, and the T/C [18] was 98 % of control, the T/C [19] was 101 % of control and the T/C [20] was 106 % of control. The T/C [21] was 98 % of control.

For `CCN(CC)c1ccc(N=Nc2ccccc2)cc1`, the T/C [18] was 93 % of control, the T/C [19] was 86 % of control and the T/C [20] was 96 % of control. For the same compound, the T/C [21] was 98 % of control.

In the case of `CCC1CCC(NC(=O)N(CCF)N=O)CC1` (stereo unspecified), the T/C (dose: 12.0 mg/kg/injection, schedule: Q01DX001 (ip), vehicle: other) is reported as 105 % of control, the T/C (dose: 18.0 mg/kg/injection, schedule: Q01DX001 (ip), vehicle: other) is reported as 114 % of control and the T/C (dose: 60.0 mg/kg/injection, schedule: Q01DX001 (ip), vehicle: other) is reported as 215 % of control. For the same compound, the T/C (dose: 93.0 mg/kg/injection, schedule: Q01DX001 (ip), vehicle: other) was 223 % of control.

`CCN(CC)Cc1cccc(Nc2cc(C)nc(/N=C(\N)Nc3ccc(Cl)c(Cl)c3)n2)c1` was tested, and the T/C (dose: 75.0 mg/kg/injection, schedule: Q01DX001 (ip), vehicle: other) was 98 % of control, the T/C (dose: 150.0 mg/kg/injection, schedule: Q01DX001 (ip), vehicle: other) was 95 % of control and the T/C (dose: 300.0 mg/kg/injection, schedule: Q01DX001 (ip), vehicle: other) was 95 % of control.

`CCN(CC)CCCC(C)Nc1c2ccc(Cl)cc2nc2cc(Cl)ccc12` (stereo unspecified) was tested, and the T/C (dose: 25.0 mg/kg/injection, schedule: Q01DX009 (ip), vehicle: saline) was 92 % of control, the T/C (dose: 25.0 mg/kg/injection, schedule: Q04DX003 (ip), vehicle: saline) was 100 % of control and the T/C (dose: 50.0 mg/kg/injection, schedule: Q01DX009 (ip), vehicle: saline) was 95 % of control. The T/C (dose: 50.0 mg/kg/injection, schedule: Q04DX003 (ip), vehicle: saline) was 98 % of control and the T/C (dose: 100.0 mg/kg/injection, schedule: Q04DX003 (ip), vehicle: saline) was 93 % of control and 86 % of control.

For `O=C(O)COc1ccccc1O`, the T/C [10] was 101 % of control and the T/C [12] was 101 % of control.

With `C[n+]1cccc2cccc(N)c21` the T/C (dose: 10.0 mg/kg/injection, schedule: Q01DX001 (ip), vehicle: other) was 105 % of control, the T/C (dose: 20.0 mg/kg/injection, schedule: Q01DX001 (ip), vehicle: other) was 115 % of control and the T/C (dose: 40.0 mg/kg/injection, schedule: Q01DX001 (ip), vehicle: other) was 105 % of control.

With `N=C(N)COc1ccccc1` the T/C (dose: 100.0 mg/kg/injection, schedule: Q01DX001 (ip), vehicle: saline sonified) was 101 % of control, the T/C (dose: 200.0 mg/kg/injection, schedule: Q01DX001 (ip), vehicle: saline sonified) was 97 % of control and the T/C (dose: 400.0 mg/kg/injection, schedule: Q01DX001 (ip), vehicle: saline sonified) was 95 % of control.

With `CC12CCC3CC1OC(=O)C32` (stereo unspecified) the T/C (dose: 12.5 mg/kg/injection, schedule: Q01DX001 (ip), vehicle: saline) was 98 % of control, the T/C (dose: 25.0 mg/kg/injection, schedule: Q01DX001 (ip), vehicle: saline) was 94 % of control and the T/C [6] was 105 % of control.
